Holding throughout (assay type): cell-based
Test [1] has as its system P-388 (suspension culture of a lymphoid neoplasm from DBA/2 mouse). In words: Cytotoxic activity screening, P-388 cells. Conditions: three days of incubation, approximate IC50 vs control growth; for IC50: Mus musculus, P388, 72 h. The procedure:
(§1) Cell Cultures. Cells were maintained in logarithmic phase of growth in Eagle's Minimum Essential Medium, with Earle's Balanced Salts, with 2.0 mM L-glutamine, with non-essential amino acids, without sodium bicarbonate (EMEM/neaa); supplemented with 10% Fetal Calf Serum (FCS), 10^−2 M sodium bicarbonate and 0.1 g/l penicillin-G+streptomycin sulfate.
(§2) A simple screening procedure has been carried out to determine and compare the antitumour activity of these compounds, using an adapted form of the method described by Bergeron et al (1984). The tumour cell line employed have been P-388 (suspension culture of a lymphoid neoplasm from DBA/2 mouse), A-549 (monolayer culture of a human lung carcinoma), HT-29 (monolayer culture of a human colon carcinoma) and MEL-28 (monolayer culture of a human melanoma).
P-388 cell were seeded into 16 mm wells at 1×10^4 cells per well in 1 ml aliquots of MEM 5FCS containing the indicated concentration of drug. A separate set of cultures without drug was seeded as control growth to ensure that cells remained in exponential phase of growth. All determinations were carried out in duplicate.

For test [2], the system named is A-549 (monolayer culture of a human lung carcinoma). In words: Cytotoxic activity screening, A-549 cells. The conditions noted are these: three days of incubation, Crystal Violet, approximate IC50; for IC50: Homo sapiens, A549, 72 h. How it is done: as §1
(§3) A separate set of cultures without drug was seeded as control growth to ensure that cells remained in exponential phase of growth. All determinations were carried out in duplicate. After three days of incubation at 37° C., 10% CO2 in a 98% humid atmosphere, the wells were stained with 0.1% Crystal Violet. An approximately IC50 was determined by comparing the growth in wells with drug to the growth in wells control.

Test [3] concerns DU-145. In words: Cytotoxic activity screening, DU-145 cells. The conditions noted are these: for IC50: Homo sapiens, DU-145, DU-145 cells. How it is done: [The source words this procedure for another cell line and reports this cell line under the same test.] as §1, §2
Examples of biological activities of the compounds described in the present application are in Table IV (IC50 (ng/mL)) on the following pages.

The test system of test [4] is HT-29 (monolayer culture of a human colon carcinoma). Nature of the test: Cytotoxic activity screening, HT-29 cells. The conditions noted are these: three days of incubation, Crystal Violet, approximate IC50; for IC50: Homo sapiens, HT-29, 72 h. The procedure: as §1, §3
Test [5] relates to MEL-28 (monolayer culture of a human melanoma). Nature of the test: Cytotoxic activity screening, MEL-28 cells. Conditions: three days of incubation, Crystal Violet, approximate IC50; for IC50: Homo sapiens, SK-MEL-28, 72 h. The procedure:
as §1, §2
A-549, HT-29 and MEL-28 were seeded into 16 mm wells at 2×10^4 cells per well in 1 ml aliquots of MEM 10FCS containing the indicated concentration of drug. A separate set of cultures without drug was seeded as control growth to ensure that cells remained in exponential phase of growth. All determinations were carried out in duplicate. After three days of incubation at 37° C., 10% CO2 in a 98% humid atmosphere, the wells were stained with 0.1% Crystal Violet. An approximately IC50 was determined by comparing the growth in wells with drug to the growth in wells control.

Structures are written as SMILES. In brackets after ≈: the same amount, converted by molar mass.

In the case of `COc1c(C)cc2c(c1O)[C@@H]1C3[C@@H]4SC[C@H](NC(=O)C(C)NC(C)=O)C(=O)OC[C@@H](c5c6c(c(C)c(OC(C)=O)c54)OCO6)N3[C@@H](C#N)[C@H](C2)N1C` (stereo partly shown) [Compound 3w], the IC50 in test [1], in test [2], in test [3], in test [4] and in test [5] was 1 ng/mL (≈ 1.36 nM) in each case.

Regarding `COc1c(C)cc2c(c1O)[C@@H]1C3[C@@H]4SC[C@H](OC(=O)C(F)(F)F)C(=O)OC[C@@H](c5c6c(c(C)c(OC(C)=O)c54)OCO6)N3[C@@H](C#N)[C@H](C2)N1C` (stereo partly shown) [Compound 17b], the IC50 in test [1], in test [2], in test [3], in test [4] and in test [5] was 5 ng/mL (≈ 6.95 nM) throughout.

Take `COc1c(C)cc2c(c1O)[C@@H]1C3[C@@H]4SC[C@H](NC(=O)/C=C/c5ccc(C(F)(F)F)cc5)C(=O)OC[C@@H](c5c6c(c(C)c(OC(C)=O)c54)OCO6)N3[C@@H](C#N)[C@H](C2)N1C` (stereo partly shown) [Compound 3i]: the IC50 in test [1], in test [2], in test [3], in test [4] and in test [5] was 5 ng/mL (≈ 6.09 nM) in each case.

Consider `COc1c(C)cc2c(c1O)[C@@H]1C3[C@@H]4SC[C@H](NC(=O)C(C)NC(=O)/C=C/c5ccccc5)C(=O)OC[C@@H](c5c6c(c(C)c(OC(C)=O)c54)OCO6)N3[C@@H](C#N)[C@H](C2)N1C` (stereo partly shown) [Compound 3x], for which the IC50 in test [1], in test [2], in test [3], in test [4] and in test [5] was 0.1 ng/mL (≈ 0.121 nM) throughout.

With `COc1c(C)cc2c(c1O)[C@@H]1C3[C@@H]4SC[C@H](N5C(=O)c6ccccc6C5=O)C(=O)OC[C@@H](c5c6c(c(C)c(OC(C)=O)c54)OCO6)N3[C@@H](C#N)[C@H](C2)N1C` (stereo partly shown) [Compound 3j], the IC50 in test [1], in test [2], in test [3], in test [4] and in test [5] was 5 ng/mL (≈ 6.64 nM) each time.

On to `CCCCCCCC(=O)O[C@H]1CS[C@@H]2c3c(OC(C)=O)c(C)c4c(c3[C@H](COC1=O)N1C2[C@H]2c3c(cc(C)c(OC)c3O)C[C@@H]([C@@H]1C#N)N2C)OCO4` (stereo partly shown) [Compound 17e], for which the IC50 in test [1], in test [2], in test [3], in test [4] and in test [5] was 1 ng/mL (≈ 1.33 nM) in each case.

For `COc1c(C)cc2c(c1O)[C@@H]1C3[C@@H]4SC[C@H](NC(=O)CCC(=O)O)C(=O)OC[C@@H](c5c6c(c(C)c(OC(C)=O)c54)OCO6)N3[C@@H](C#N)[C@H](C2)N1C` (stereo partly shown) [Compound 3l], the IC50 in test [1], in test [2], in test [3], in test [4] and in test [5] was 100 ng/mL (≈ 138 nM) in each case.

For `CCCC(=O)O[C@H]1CS[C@@H]2c3c(OC(C)=O)c(C)c4c(c3[C@H](COC1=O)N1C2[C@H]2c3c(cc(C)c(OC)c3O)C[C@@H]([C@@H]1O)N2C)OCO4` (stereo partly shown) [Compound 21c], the IC50 in test [1], in test [2], in test [3], in test [4] and in test [5] was 1 ng/mL (≈ 1.46 nM) throughout.

For `COc1c(C)cc2c(c1O)[C@@H]1C3[C@@H]4SCC(NCc5ccccc5)C(=O)OC[C@@H](c5c6c(c(C)c(OC(C)=O)c54)OCO6)N3[C@@H](C#N)[C@H](C2)N1C` (stereo partly shown) [Compound 3n], the IC50 in test [1], in test [2], in test [3], in test [4] and in test [5] was 0.5 ng/mL (≈ 0.701 nM) each time.

`COc1c(C)cc2c(c1O)[C@@H]1C3[C@@H]4SC[C@H](NC(=O)C(NC(C)=O)C(C)C)C(=O)OC[C@@H](c5c6c(c(C)c(OC(C)=O)c54)OCO6)N3[C@@H](C#N)[C@H](C2)N1C` (stereo partly shown) [Compound 3q]: the half-inhibitory concentration (IC50) in test [1], in test [2], in test [3], in test [4] and in test [5] was 1 ng/mL (≈ 1.31 nM) in each case.

For the compound `CCCCCCCCCCCCCCCC(=O)N[C@H]1CS[C@@H]2c3c(OC(C)=O)c(C)c4c(c3[C@H](COC1=O)N1C2[C@H]2c3c(cc(C)c(OC)c3O)C[C@@H]([C@@H]1O)N2C)OCO4` (stereo partly shown) [Compound 4f], the IC50 in test [1], in test [2], in test [3], in test [4] and in test [5] was 100 ng/mL (≈ 117 nM) each time.

As to `COC(=O)c1ccccc1C(=O)N[C@H]1CS[C@@H]2c3c(OC(C)=O)c(C)c4c(c3[C@H](COC1=O)N1C2[C@H]2c3c(cc(C)c(OC)c3O)C[C@@H]([C@@H]1C#N)N2C)OCO4` (stereo partly shown) [Compound 6], the IC50 in test [1], in test [2], in test [3], in test [4] and in test [5] was 1 ng/mL (≈ 1.27 nM) each time.

In the case of `COc1c(C)cc2c(c1O)[C@@H]1C3[C@@H]4SC[C@H](OC(=O)/C=C/c5ccccc5)C(=O)OC[C@@H](c5c6c(c(C)c(OC(C)=O)c54)OCO6)N3[C@@H](C#N)[C@H](C2)N1C` (stereo partly shown) [Compound 17h], the IC50 in test [1], in test [2], in test [3], in test [4] and in test [5] was 0.1 ng/mL (≈ 0.133 nM) in each case.

Turning to `COc1c(C)cc2c(c1O)[C@@H]1C3[C@@H]4SC[C@H](NC(=O)C(NC(=O)/C=C/c5ccccc5)C(C)C)C(=O)OC[C@@H](c5c6c(c(C)c(OC(C)=O)c54)OCO6)N3[C@@H](O)[C@H](C2)N1C` (stereo partly shown) [Compound 4r], the IC50 in test [1], in test [2], in test [3], in test [4] and in test [5] was 0.5 ng/mL (≈ 0.593 nM) throughout.

For the compound `COc1c(C)cc2c(c1O)[C@@H]1C3[C@@H]4SC[C@H](NC(=O)C(F)(F)F)C(=O)OC[C@@H](c5c6c(c(C)c(OC(C)=O)c54)OCO6)N3[C@@H](O)[C@H](C2)N1C` (stereo in doubt) [Compound 4b], the IC50 in test [1], in test [2], in test [3], in test [4] and in test [5] was 0.5 ng/mL (≈ 0.705 nM) in each case.

In the case of `COc1c(C)cc2c(c1O)[C@@H]1C3[C@@H]4SC[C@H](OS(C)(=O)=O)C(=O)OC[C@@H](c5c6c(c(C)c(OC(C)=O)c54)OCO6)N3[C@@H](O)[C@H](C2)N1C` (stereo partly shown) [Compound 21ll], the IC50 in test [1], in test [2], in test [3], in test [4] and in test [5] was 1 ng/mL (≈ 1.44 nM) each time.

In the case of `COc1c(C)cc2c(c1O)[C@@H]1C3[C@@H]4SC[C@H](NC(=O)/C=C/c5ccccc5)C(=O)OC[C@@H](c5c6c(c(C)c(OC(C)=O)c54)OCO6)N3[C@@H](C#N)[C@H](C2)N1C` (stereo partly shown) [Compound 3h], the IC50 in test [1], in test [2], in test [3], in test [4] and in test [5] was 0.5 ng/mL (≈ 0.664 nM) in each case.

For `CCCCCCCCCCCCCCCC(=O)N[C@H]1CS[C@@H]2c3c(OC(C)=O)c(C)c4c(c3[C@H](COC1=O)N1C2[C@H]2c3c(cc(C)c(OC)c3O)C[C@@H]([C@@H]1C#N)N2C)OCO4` (stereo partly shown) [Compound 3f], the “IC50 P-388” value in test [1] was >1-10^3 ng/mL. Further, the “IC50 A-549” value in test [2] is >1-10^3 ng/mL. For the same compound, the “IC50 DU-145” value in test [3] (DU-145 cells) is recorded as >1-10^3 ng/mL. Besides, in test [4], the “IC50 HT-29” value was >1-10^3 ng/mL. Also, in test [5], the “IC50 MEL-28” value is on record as >1-10^3 ng/mL.

With `COc1c(C)cc2c(c1O)[C@@H]1C3[C@@H]4SC[C@H](NC(=O)C(NC(=O)C(C)NC(=O)/C=C/c5ccccc5)C(C)C)C(=O)OC[C@@H](c5c6c(c(C)c(OC(C)=O)c54)OCO6)N3[C@@H](O)[C@H](C2)N1C` (stereo partly shown) [Compound 4u], the IC50 in test [1], in test [2], in test [3], in test [4] and in test [5] was 5 ng/mL (≈ 5.47 nM) in each case.

In the case of `CCCCCCCC(=O)N[C@H]1CS[C@@H]2c3c(OC(C)=O)c(C)c4c(c3[C@H](COC1=O)N1C2[C@H]2c3c(cc(C)c(OC)c3O)C[C@@H]([C@@H]1O)N2C)OCO4` (stereo partly shown) [Compound 4e], the IC50 in test [1], in test [2], in test [3], in test [4] and in test [5] was 1 ng/mL (≈ 1.35 nM) in each case.

These data come from patent publication US7919493B2, “Anititumoral ecteinascidin derivatives” (Pharma Mar, S.A., priority 2001, dated 2011).
